Assay [1] relates to Mycobacterium tuberculosis. Description: Antimycobacterial activity against Mycobacterium tuberculosis H37Ra ATCC 25177. The format is functional.
Assay [2] concerns Mycobacterium tuberculosis. Description: Antimycobacterial activity against Mycobacterium tuberculosis H37Rv. Format: functional.
Assay [3] concerns Mycobacterium tuberculosis. Description: Antimycobacterial activity against Mycobacterium tuberculosis H37Rv mc26206 incubated for 96 hrs by resazurin microtiter assay. Format: functional. Conditions: H37Rv mc26206, 96 h. Background: The colour change of resazurin is a common sign of viable cells or microbes.
Assay [4] is described as follows: Inhibition of recombinant Mycobacterium tuberculosis H37Rv N-terminal His-tagged glgE expressed in Escherichia coli T7 Rosetta cells using MESG as substrate measured every 5 sec for 10 mins by PNP enzyme coupled assay.
In assay [5] the test system is Mycobacterium tuberculosis. Description: Antimycobacterial activity against Mycobacterium tuberculosis H37Rv by 2-fold broth dilution method. The format is functional.
The nature of assay [6]: Inhibition of Mycobacterium tuberculosis antigen 85C acyltransferase activity preincubated with enzyme by UV-vis spectrophotometric analysis.
Assay [7] can be described thus: Competitive inhibition of recombinant Mycobacterium smegmatis trehalose synthase using DNPGlc as substrate by Dixon plot analysis. Also noted: species or system Mycolicibacterium smegmatis.
In assay [8] the test system is Mycobacterium tuberculosis. Description: Inhibition of Mycobacterium tuberculosis antigen 85C mycolyltransferase activity at 100 ug/ml incubated for 30 mins by scintillation counting method in presence of [14C]-trehalose relative to control.
For assay [9], the system named is Mycobacterium tuberculosis. Description: Antimycobacterial activity against Mycobacterium tuberculosis H37Rv by microdilution method. Format: functional.
Assay [10] deals with Mycobacterium tuberculosis. Description: Antimycobacterial activity against Mycobacterium tuberculosis incubated for 96 hrs by resazurin microtiter assay. The format is functional.
Assay [11] can be described thus: Inhibition of Mycobacterium tuberculosis antigen 85C mycolyltransferase activity incubated for 30 mins by scintillation counting method in presence of [14C]-trehalose.
Assay [12] is described as follows: Inhibition of Mycobacterium tuberculosis antigen 85C mycolyltransferase activity using trehalose as substrate measured every 20 sec for 30 mins by 4-methylumbelliferyl butyrate fluorescence assay.

≈ marks a conversion by molar mass, not a printed value.

Broadly, the MIC is the least concentration at which growth counts as inhibited. As usually defined, the Ki is a measure of affinity in units of concentration, obtained from inhibition or displacement. As usually defined, the IC50 is the concentration at which inhibition is half-maximal. One may read the inhibition as the drop in the measured response relative to a control, in per cent.

`CCCCCCCCNC[C@H]1O[C@H](O[C@H]2O[C@H](CNCCCCCCCC)[C@@H](O)[C@H](O)[C@H]2O)[C@H](O)[C@@H](O)[C@@H]1O` showed an MIC in [1] of 4 µg/mL (≈ 7.08 µM).

Regarding `CN1CCN(Cc2cc(-c3ccc(Cl)cc3)n(-c3ccc(Cl)cc3)c2-c2ccccc2)CC1`, the MIC in assay [2] was determined as 1.5 µg/mL.

On to `CCCCC(CC)CNC[C@H]1O[C@H](O[C@H]2O[C@H](CNCC(CC)CCCC)[C@@H](O)[C@H](O)[C@H]2O)[C@H](O)[C@@H](O)[C@@H]1O` (stereo partly drawn), for which the lowest concentration to inhibit growth in [1] (MIC) was 32 µg/mL (≈ 56.7 µM).

For `O=c1c2ccccc2[se]n1-c1ccccc1` [EBSELEN], in [3], the MIC was found to be 20 µg/mL (≈ 72.9 µM).

Take `OC[C@H]1N[C@H](CO)[C@@H](O[C@H]2O[C@H](CO)[C@@H](O)[C@H](O)[C@H]2O)[C@@H]1O`: in [4], the Ki worked out at 237 µM.

In assay [5], `CC(C)=CCC/C(C)=C/CNCCNC1C2CC3CC(C2)CC1C3` (stereo not drawn) [SQ109] gave an MIC of 1.5 µg/mL (≈ 4.54 µM).

On to `COC(=O)CC[C@H]1O[C@@H](OC)[C@@H](O)[C@@H]1O`, for which the half-inhibitory concentration (IC50) in assay [6] was found to be 25000 µM.

`OC[C@@H]1[C@@H](O)[C@H](O)C2[C@H](O)[C@@H](O)CN21` (stereo partly drawn): in assay [7], the Ki was determined as 2.5 µM.

Turning to `OC[C@H]1NC[C@H](O)[C@@H](O)[C@@H]1O` [DUVOGLUSTAT], in [7], the Ki was found to be 0.25 µM.

In the case of `O=C(Nc1ccccc1)O/N=C1\N[C@H](CO)[C@@H](O)[C@H](O)[C@H]1O`, the Ki in assay [7] worked out at 2.1 µM.

`CCCCCCCCCCNC[C@H]1O[C@H](O[C@H]2O[C@H](CNCCCCCCCCCC)[C@@H](O)[C@H](O)[C@H]2O)[C@H](O)[C@@H](O)[C@@H]1O` came in with an MIC in [1] of 1.3 µg/mL (≈ 2.09 µM).

Consider `[N-]=[N+]=NC[C@H]1O[C@H](O[C@H]2O[C@H](CO)[C@@H](O)[C@H](O)[C@H]2O)[C@H](O)[C@@H](O)[C@@H]1O`, for which the inhibition in [8] stood at 60%.

For `CCOC(=O)c1c(NC(=O)c2c(F)c(F)c(F)c(F)c2F)sc(C(N)=O)c1C`, inhibition of growth in assay [9] (MIC) required 0.5 µM (≈ 0.211 µg/mL).

Molecule `COC(=O)c1c(NC(=O)c2c(F)c(F)c(F)c(F)c2F)sc2c1CCCCC2` gave an MIC in assay [9] of 1 µM (≈ 0.419 µg/mL).

For `CCCC1CCc2c(sc(N)c2C#N)C1` (stereo not drawn), the MIC in [10] was 100 µM (≈ 22 µg/mL).

Molecule `CCc1sc(NC(=O)c2c(F)c(F)c(F)c(F)c2F)c(C(=O)OC(C)C)c1C` had an MIC in assay [9] of 1 µM (≈ 0.421 µg/mL).

In [1], `CCCCCCCCS(=O)(=O)NC[C@H]1O[C@H](O[C@H]2O[C@H](CNS(=O)(=O)CCCCCCCC)[C@@H](O)[C@H](O)[C@H]2O)[C@H](O)[C@@H](O)[C@@H]1O` showed an MIC of 16 µg/mL (≈ 23.1 µM).

On to `O=C(Nc1ccc(F)c(F)c1F)NC12CC3CC(CC(C3)C1)C2`, for which the MIC in [2] stood at 0.5 µg/mL.

As to `CCCCCCCCS(=O)(=O)OCCN1C(=O)c2ccccc2C1=O`, the IC50 in assay [11] turned out to be 4.3 µM.

Turning to `CCCCCCCCCCCCNC[C@H]1O[C@H](O[C@H]2O[C@H](CNCCCCCCCCCCCC)[C@@H](O)[C@H](O)[C@H]2O)[C@H](O)[C@@H](O)[C@@H]1O`, 8 µg/mL (≈ 11.8 µM) was the least that counted as inhibitory in assay [1] (MIC).

In turn, `c1ccc(CNC23CC4CC(CC(C4)C2)C3)cc1` gave an MIC in assay [9] of 10 µM (≈ 2.41 µg/mL).

`CCCn1cnc2cc(NCc3ccc(Cl)cc3Cl)ccc21` had an MIC in assay [2] of 16 µM.

In the case of `CCOC(=O)c1c(NC(=O)SC[C@H]2O[C@@H](O)[C@@H](O)[C@@H]2O)sc2c1CCCC2`, in [12], the Ki came out at 18.2 µM.

For the origin of these results see ChEMBL document CHEMBL3784964, “Targeting the trehalose utilization pathways of Mycobacterium tuberculosis” (Medchemcomm, 2016).
